# Measurements: ChEMBL document CHEMBL1129131, “Identification and structure-activity relationship studies of osthol, a cytotoxic principle from Cnidium monnieri” (Bioorg Med Chem Lett, 1996)
# System: KB
# Assay: Compound was tested for its cytotoxicity against KB cells
# Type: functional, cell-based
# Details: Homo sapiens
row,SMILES,IC50
1,COc1ccc2ccc(=O)oc2c1CC=C(C)C [OSTHOLE],12 µg/mL

# System: P388
# Assay: Compound was tested for its cytotoxicity against P-388 cells
# Type: functional, cell-based
# Details: Mus musculus
row,SMILES,IC50
1,COc1ccc2ccc(=O)oc2c1CC=C(C)C [OSTHOLE],3.1 µg/mL

# System: V79
# Assay: Cytotoxicity against V-79 cells
# Type: functional, cell-based
# Details: Cricetulus griseus
row,SMILES,IC50
1,COc1ccc2ccc(=O)oc2c1CCC(C)(C)O,> 100 µM
2,COc1ccc2ccc(=O)oc2c1CC1OC1(C)C (configuration not stated),> 100 µM
3,CCCCCCCOc1ccc2ccc(=O)oc2c1CCC(C)C,17 µM
4,CC(=O)c1ccc2ccc(=O)oc2c1CCC(C)C,60 µM
5,CC(C)CCc1cccc2ccc(=O)oc12,60 µM
6,CC(C)CCc1c(O)ccc2ccc(=O)oc12,40 µM
7,CCCOc1ccc2ccc(=O)oc2c1CCC(C)C,5.6 µM
8,CCCCOc1ccc2ccc(=O)oc2c1CCC(C)C,16 µM
9,CCCC(=O)c1ccc2ccc(=O)oc2c1CCC(C)C,58 µM
10,CCOc1ccc2ccc(=O)oc2c1CCC(C)C,5.8 µM
11,COc1ccc2ccc(=O)oc2c1CC=C(C)C [OSTHOLE],57 µM
12,O=c1ccc2ccccc2o1 [COUMARIN],> 100 µM
13,COc1ccc2ccc(=O)oc2c1 [HERNIARIN],> 100 µM
14,COc1ccc2c(c1CCC(C)C)OC(=O)CC2,> 100 µM
15,O=c1ccc2ccc(O)cc2o1 [UMBELLIFERONE],58 µM
16,COc1ccc2ccc(=O)oc2c1CCC(C)C,58 µM
17,COc1ccc2ccc(=O)oc2c1CC(Br)C(C)(C)Br (configuration not stated),60 µM
18,CC(C)CCc1c(O)ccc2c1OC(=O)CC2,> 100 µM
19,COc1ccc2ccc(=O)oc2c1CC(O)C(C)(C)O (configuration not stated),> 100 µM

# System: MM46
# Assay: Compound was tested for its cytotoxicity against MM46 cells
# Type: functional, cell-based
# Details: Mus musculus
row,SMILES,IC50
1,COc1ccc2ccc(=O)oc2c1CC=C(C)C [OSTHOLE],8.6 µg/mL
